Measurements published in patent publication US9745284B2, “2-pyridyloxy-4-ether orexin receptor antagonists” (MERCK SHARP & DOHME CORP., priority 2013, dated 2017).

Legend:
[1] = target: hOX1R (Homo sapiens, UniProt O43613); assay: FLIPR Ca2+ flux assay, orexin-1 receptor; format: cell-based; conditions: CHO cells expressing orexin-1 receptor; agonist 70 pM Ala-6,12 orexin-A
[2] = target: human orexin-2 receptor (Homo sapiens (Human), UniProt O43614); assay: FLIPR Ca2+ flux assay, orexin-2 receptor; format: cell-based; conditions: CHO cells expressing human orexin-2 receptor; agonist 70 pM Ala-6,12 orexin-A; read-out: hOX2R FLIPR IC50
Chain of human orexin-2 receptor (O43614 whole entry): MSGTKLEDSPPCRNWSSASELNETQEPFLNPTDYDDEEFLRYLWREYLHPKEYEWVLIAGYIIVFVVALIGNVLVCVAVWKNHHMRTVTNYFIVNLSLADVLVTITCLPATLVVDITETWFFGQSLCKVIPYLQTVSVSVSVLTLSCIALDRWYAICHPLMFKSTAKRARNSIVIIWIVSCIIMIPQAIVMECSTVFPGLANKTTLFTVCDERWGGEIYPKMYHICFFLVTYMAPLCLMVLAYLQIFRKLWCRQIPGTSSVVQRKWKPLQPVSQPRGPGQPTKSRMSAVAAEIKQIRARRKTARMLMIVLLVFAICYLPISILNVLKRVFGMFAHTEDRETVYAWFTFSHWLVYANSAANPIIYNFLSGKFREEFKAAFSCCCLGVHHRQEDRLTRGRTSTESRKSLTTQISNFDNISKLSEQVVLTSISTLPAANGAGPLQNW
Description: The utility of the compounds in accordance with the present invention as orexin receptor OX1R and/or OX2R antagonists may be readily determined without undue experimentation by methodology well known in the art, including the “FLIPR Ca^2+ Flux Assay” (Okumura et al., Biochem. Biophys. Res. Comm. 280:976-981, 2001). In a typical experiment the OX1 and OX2 receptor antagonistic activity of the compounds of the present invention was determined in accordance with the following experimental method. For intracellular calcium measurements, Chinese hamster ovary (CHO) cells expressing the rat orexin-1 receptor or the human orexin-2 receptor, are grown in Iscove's modified DMEM containing 2 mM L-glutamine, […], 1% hypoxanthine-thymidine supplement, 100 U/ml penicillin, 100 μg/ml streptomycin and 10% heat-inactivated fetal calf serum (FCS). The cells are seeded at 20,000 cells/well into Becton-Dickinson black 384-well clear bottom sterile plates coated with poly-D-lysine. All reagents were from GIBCO-Invitrogen Corp. The seeded plates are incubated overnight at 37° C. and 5% CO2. Ala-6,12 human orexin-A as the agonist is prepared as a 1 mM stock solution in 1% bovine serum albumin (BSA) and diluted in assay buffer (HBSS containing 20 mM HEPES, 0.1% BSA and 2.5 mM probenecid, pH7.4) for use in the assay at a final concentration of 70 pM. Test compounds are prepared as 10 mM stock solution in DMSO, then diluted in 384-well plates, first in DMSO, then assay buffer. On the day of the assay, cells are washed 3 times with 100 μl assay buffer and then incubated for 60 min (37° C., 5% CO2) in 60 μl assay buffer containing 1 μM Fluo-4AM ester, 0.02% pluronic acid, and 1% BSA. The dye loading solution is then aspirated and cells are washed 3 times with 100 μl assay buffer. 30 μl of that same buffer is left in each well. Within the Fluorescent Imaging Plate Reader (FLIPR, Molecular Devices), test compounds are added to the plate in a volume of 25 μl, incubated for 5 min and finally 25 μl of agonist is added. Fluorescence is measured for each well at 1 second intervals for 5 minutes and the height of each fluorescence peak is compared to the height of the fluorescence peak induced by 70 pM Ala-6,12 orexin-A with buffer in place of antagonist. For each antagonist, IC50 value (the concentration of compound needed to inhibit 50% of the agonist response) is determined. Alternatively, compound potency can be assessed by a radioligand binding assay (described in Bergman et. al. Bioorg. Med. Chem. Lett. 2008, 18, 1425-1430) in which the inhibition constant (Ki) is determined in membranes prepared from CHO cells expressing either the OX1 or OX2 receptor. The intrinsic orexin receptor antagonist activity of a compound which may be used in the present invention may be determined by these assays.

Row | SMILES | IC50 [1] [µM] | IC50 [2] [µM]
1 | C[C@@H]1CC[C@@H](Oc2cc(OC(F)F)ccn2)CN1C(=O)c1ccccc1-n1nccn1 [Example 52, (2-(2H-1,2,3-Triazol-2-yl)phenyl)((2R,5R)-5-((4-(difluoromethoxy)pyridin-2-yl)oxy)-2-methylpiperidin-1-yl)methanone] | 0.194 | 0.004
2 | C[C@@H]1CC[C@@H](Oc2cc(OCF)ccn2)CN1C(=O)c1ccccc1-n1nccn1 [Example 53, (2-(2H-1,2,3-Triazol-2-yl)phenyl)((2R,5R)-5-((4-(fluoromethoxy)pyridin-2-yl)oxy)-2-methylpiperidin-1-yl)methanone] | 0.49 | 0.008
3 | C[C@@H]1CC[C@@H](Oc2cc(OC(F)F)ccn2)CN1C(=O)c1ccsc1-n1nccn1 [Example 54, (2-(2H-1,2,3-Triazol-2-yl)thiophen-3-yl)((2R,5R)-5-((4-(difluoromethoxy)pyridin-2-yl)oxy)-2-methylpiperidin-1-yl)methanone] | 1.02 | 0.011
4 | C[C@@H]1CC[C@@H](Oc2cc(OC(F)F)ccn2)CN1C(=O)c1cscc1-n1nccn1 [Example 55, 4-(difluoromethoxy)-2-{[(3R,6R)-6-methyl-1-{[4-(2H-1,2,3-triazol-2-yl)thiophen-3-yl]carbonyl}piperidin-3-yl]oxy}pyridine] | 1.76 | 0.013
5 | C[C@@H]1CC[C@@H](Oc2cc(OC(F)F)ccn2)CN1C(=O)c1ccccc1C1(C#N)CC1 [Example 56, 1-(2-{[(2R,5R)-5-{[4-(difluoromethoxy)pyridin-2-yl]oxy}-2-methylpiperidin-1-yl]carbonyl}phenyl) cyclopropane-carbonitrile] | 1.15 | 0.011
6 | C[C@@H]1CC[C@@H](Oc2cc(OC(F)F)ccn2)CN1C(=O)c1ccccc1-n1ncnn1 [Example 57, 4-(difluoromethoxy)-2-{[(3R,6R)-6-methyl-1-{[2-(2H-tetrazol-2-yl)phenyl]carbonyl}piperidin-3-yl]oxy}pyridine] | 1.69 | 0.011
7 | COc1ccnc(O[C@@H]2CC[C@@H](C)N(C(=O)c3ccsc3-c3ncccn3)C2)c1 [Example 58, ((2R,5R)-5-((4-Methoxypyridin-2-yl)oxy)-2-methylpiperidin-1-yl)(2-(pyrimidin-2-yl)thiophen-3-yl)methanone] | 1.11 | 0.021
8 | C[C@@H]1CC[C@@H](Oc2cc(OCC(F)F)ccn2)CN1C(=O)c1ccsc1-n1nccn1 [Example 60, (2-(2H-1,2,3-Triazol-2-yl)thiophen-3-yl)((2R,5R)-5-((4-(2,2-difluoroethoxy)pyridin-2-yl)oxy)-2-methylpiperidin-1-yl)methanone] | 2.02 | 0.022
9 | CC(C)Oc1ccnc(O[C@@H]2CC[C@@H](C)N(C(=O)c3ccsc3-n3nccn3)C2)c1 [Example 61, 4-(1-methylethoxy)-2-{[(3R,6R)-6-methyl-1-{[2-(2H-1,2,3-triazol-2-yl)thiophen-3-yl]carbonyl}piperidin-3-yl]oxy}pyridine] | 1.48 | 0.025
10 | CCOc1ccnc(O[C@@H]2CC[C@@H](C)N(C(=O)c3ccsc3-n3nccn3)C2)c1 [Example 62, 4-ethoxy-2-{[(3R,6R)-6-methyl-1-{[2-(2H-1,2,3-triazol-2-yl)thiophen-3-yl]carbonyl}piperidin-3-yl]oxy}pyridine] | 1.16 | 0.022
11 | C[C@@H]1CC[C@@H](Oc2cc(OCC(F)(F)F)ccn2)CN1C(=O)c1ccsc1-n1nccn1 [Example 63, 2-{[(3R,6R)-6-methyl-1-{[2-(2H-1,2,3-triazol-2-yl)thiophen-3-yl]carbonyl}piperidin-3-yl]oxy}-4-(2,2,2-trifluoroethoxy) pyridine] | 8.38 | 0.055
12 | C[C@@H]1CC[C@@H](Oc2cc(OCC(F)F)ccn2)CN1C(=O)c1ccsc1-c1ncccn1 [Example 64, ((2R,5R)-5-((4-(2,2-Difluoroethoxy)pyridin-2-yl)oxy)-2-methylpiperidin-1-yl)(2-(pyrimidin-2-yl)thiophen-3-yl)methanone] | 5.21 | 0.036
13 | CCOc1ccnc(O[C@@H]2CC[C@@H](C)N(C(=O)c3ccsc3-c3ncccn3)C2)c1 [Example 65, ((2R,5R)-5-(4-Ethoxypyridin-2-yloxy)-2-methylpiperidin-1-yl)(2-(pyrimidin-2-yl)thiophen-3-yl)methanone] | 0.899 | 0.026
14 | C[C@@H]1CC[C@@H](Oc2cc(OCC(F)(F)F)ccn2)CN1C(=O)c1ccsc1-c1ncccn1 [Example 66, 2-(3-{[(2R,5R)-2-methyl-5-{[4-(2,2,2-trifluoroethoxy)pyridin-2-yl]oxy}piperidin-1-yl]carbonyl}thiophen 2-yl)pyrimidine] | 2.08 | 0.026
